Common to all, as to format: cell-based
Assay [1] deals with IgE antibody production from human lymphocyte. The assay is described as follows: Human in vitro IgE antibody production suppressing activity (lymphocyte culture with IL-4 + IL-10 + anti-CD40 antibody, sandwich ELISA). To be noted: for IC50: IgE antibody production; for inhibition at 1 µM: test drug concentration 1 μM, IL-4 + IL-10 + anti-CD40 antibody, read-out: IgE production suppressing ratio (%). As to the method: (§1) The concentrations of IgE and IgG antibodies were measured by the following method according to the method described in the Journal of Immunology vol.146, pp.1836-1842, 1991 and the Journal of Immunology vol. 147, pp.8-13, 1991.
(§2) Concretely, lymphocyte was separated from the peripheral venous blood of healthy person by density gradient centrifugation. The obtained lymphocyte was washed, suspended in a culture liquid (RPMI-1640 (product of Gibco Co.)+10% heat-inactivated FCS (product of Whittaker Co.)+100 μg/ml streptomycin+100 U/ml penicillin G+2 mM L-glutamine) and cultured for a week in the presence of interleukin 4 (IL-4, product of GENZYME Co.) (0.1 μg/ml), anti-CD40 antibody (antiCD40Aab, product of BIOSOURCE Co.), clone B-B20) (2 μg/ml) and interleukin 10 (IL-10, product of GENZYME Co.) (0.2 μg/ml) in the presence or absence of the compounds of the present invention described in the Tables 10 to 15 at various concentrations as test drugs.
(§3) The culture liquid was added to the culture system, the culture was continued for additional one week, and the concentrations of IgE and IgG antibodies in the supernatant were measured by sandwich ELISA method.
(§4) The measurement by ELISA method was carried out according to the known ELISA method by using rabbit anti-human IgE(ε) antibody (product of ICN Co.) as the primary antibody and biotin.anti-human IgE monoclonal antibody (G7-26, product of PharMingen Co.) as the secondary antibody for the measurement of IgE antibody concentration and anti-human IgG monoclonal antibody (G18-145, product of PharMingen Co.) as the primary antibody and biotin-donkey anti-human IgG antibody (H+L) (product of Jackson Co.) as the secondary antibody for the measurement of IgG antibody concentration, and using avidin-biotin-hourse radish peroxidase (ABC kit, product of Vector Lab.) as the enzyme and TMB (3,3′,5,5′-tetramethylbenzidine) microwell peroxidase substrate system (product of Kirkegaard & Perry Laboratories Inc.) as the substrate.
(§5) The value of IC50 and the suppressing ratio (%) at the test drug concentration of 1 μM were calculated based on the concentration attained in the absence of the compound of the present invention (reference: Ueshimna, et al. American Academy of Allergy & Immunology, 1995 Annual Meeting, Program No.818).
In general terms: In an ELISA, binding on a coated surface is turned into a signal by an enzyme label.

Assay [2] concerns IgG antibody production from human lymphocyte. The assay is described as follows: Human in vitro IgG antibody production (same lymphocyte culture, sandwich ELISA). Conditions: for inhibition at 1 µM: Homo sapiens, Lymphocyte, test drug concentration 1 μM, IL-4 + IL-10 + anti-CD40 antibody, read-out: IgG production suppressing ratio (%); for IC50: IgG antibody production. As to the method:
as §1, §2, §3, §4, §5

Assay [3] relates to L929 cells. The assay is described as follows: Measurement of cytotoxicity using mouse tumor cell L929 (neutral red assay). As to the method: [Procedure] The cytotoxicity action on tumor cell was measured by neutral red assay (the method described in the Journal of Tissue Culture Methodology vol.9, p.7 (1984) and Toxicology Letters, vol.24, p.119 (1985)). Concretely, L929 cells (5×10^4 cells/ml, 10% FCS/RPMI) were added to the wells of a 96 well ELISA plate at a rate of 100 μL each and cultured for a night, and the testing compounds of respective measurement concentrations were dissolved in DMSO solution and added to the above cells. The culture was continued for 3 days, and 2.0 μL of Neutral Red was added to attain the final concentration of 0.01%. The mixture was incubated for 1 hour at 37° C., the supernatant of the cell culture product was removed and the residue was washed twice with 200 μL of PBS to remove excess Neutral Red. Thereafter, the dye taken into the cell was extracted by adding 100 μL of 50% ethanol-1% acetic acid aqueous solution and the amount of the dye was determined by measuring the absorbance at 490 nm. The cytotoxicity was determined at each concentration of the test compound taking the cytotoxicity free from the drug as 100%. […] Two sets of measurement were performed for each test under the same condition and the average value was used as the test result.

[4] abbreviates: 72 h, cytotoxic activity against L929, neutral red assay, 3 days culture, read-out: LD50 (the source's name).
Where [5] appears, read: L929, 72 h, read-out: LD50 (μM).

Like-named read-outs stand apart in the source and are kept apart here.

Usually IC50 stands for the point on the concentration scale where inhibition reaches its midpoint.

Take `O=C(Cc1ccc(Oc2ccc(OC3CCC(NC(=O)Nc4ccc(Cl)c(Cl)c4)CC3)cc2)cc1)Nc1ccccc1C(=O)O` (centres unmarked) [compound 142]: the IC50 was found to be 0.034 µM in assay [1] and 0.141 µM in assay [2]. In addition, the figures for the inhibition at 1 µM in assay [1] and in assay [2] were 100% and 93.7%, respectively. For the same compound, the CC50 in assay [3] (setting [4]) came to 0.54 µM.
For the compound `O=C(Cc1ccc(Oc2ccc3cc(OCCN4CCOCC4)ccc3c2)nc1)Nc1ccccc1C(=O)O` [compound 427], the figures for the IC50 in assay [1] and in assay [2] were 0.04 µM and over 10 µM, respectively. Further, the inhibition at 1 µM in assay [1] was 96.4%; in assay [2] it was over 10%.
Take `O=C(Cc1ccc(Oc2ccc(OC3CCOCC3)cc2)cc1)Nc1ccccc1C(=O)O` [compound 44]: in assay [1], the IC50 turned out to be 0.221 µM and the inhibition at 1 µM was 100%. Further, in assay [2], the inhibition at 1 µM is 88.5% and the midpoint of inhibition, the IC50, lay at 0.404 µM. Also, the CC50 in assay [3] (setting [5]) stood at 1.16 µM.
With `CC(=O)Nc1ccc(CCOc2ccc(Oc3ccc(CC(=O)Nc4ccccc4C(=O)O)cc3)cc2)cc1` [compound 45], in assay [1], the IC50 worked out at 0.305 µM and the inhibition at 1 µM came out at 99.4%. In addition, in assay [2], the inhibition at 1 µM was -179% and the 50% inhibitory concentration (IC50) was 0.631 µM. Besides, the CC50 in assay [3] (setting [4]) was 0.22 µM.
Turning to `CCCCC(=O)N[C@H]1CC[C@@H](Oc2ccc3cc(Oc4ccc(C(=O)Nc5ccccc5C(=O)O)cc4)ccc3c2)CC1` [compound 370], in assay [1], the concentration for half-maximal inhibition (IC50) was 0.027 µM and the inhibition at 1 µM is 94.7%. For the same compound, in assay [2], the inhibition at 1 µM is -45.5% and the IC50 is over 1 µM. Further, in assay [3] (setting [5]), the CC50 is 6.8 µM.
For `O=C(Cc1ccc(Oc2ccc(OC3CCC(NS(=O)(=O)c4ccccc4)CC3)cc2)cc1)Nc1ccccc1C(=O)O` (centres unmarked) [compound 121], in assay [1], the concentration for half-maximal inhibition (IC50) was 0.027 µM and the inhibition at 1 µM was 100%. Moreover, in assay [2], the inhibition at 1 µM was 77.5% and the midpoint of inhibition, the IC50, lay at 0.543 µM. Further, the CC50 in assay [3] (setting [5]) is 1.8 µM.
Regarding `O=C(Nc1ccccc1C(=O)O)c1ccc(Oc2ccc(OCCN3CCCCC3)cc2)cc1` [compound 93], in assay [1], the half-inhibitory concentration (IC50) was determined as 0.738 µM and the inhibition at 1 µM came to 56.2%. The compound further displayed an IC50 in assay [2] of over 10 µM.
In the case of `COC(=O)N1CCC(Oc2ccc(Oc3ccc(CC(=O)Nc4ccccc4C(=O)O)cc3)cc2)CC1` [compound 79], in assay [1], the IC50 was 0.04 µM and the inhibition at 1 µM is 100%. Besides, in assay [2], the inhibition at 1 µM was 92.4% and it took 0.489 µM to reach half-maximal inhibition (IC50). The CC50 in assay [3] (setting [5]) was found to be 0.98 µM.
Consider `CC(C)(C)OC(=O)NC1CCC(Oc2ccc(Oc3ccc(CC(=O)Nc4ccccc4C(=O)O)cc3)cc2)CC1` (centres unmarked) [compound 133], for which the values for the IC50 in assay [1] and in assay [2] were 0.042 µM and 0.228 µM, respectively. Further, the inhibition at 1 µM worked out at 100% in assay [1] and 98.2% in assay [2]. For the same compound, in assay [3] (setting [5]), the CC50 worked out at 0.33 µM.
As for `CCOCCOc1ccc(Oc2ccc(CC(=O)Nc3ccccc3C(=O)O)cn2)cc1` [compound 415], the values for the concentration for half-maximal inhibition (IC50) in assay [1] and in assay [2] were 0.028 µM and 9.76 µM, respectively. Further, the inhibition at 1 µM in assay [1] is 100%; in assay [2] it was -85.8%.
In the case of `O=C(Cc1ccc(Oc2ccc(OC3CCC(NC(=O)c4ccc(Cl)c(Cl)c4)CC3)cc2)cc1)Nc1ccccc1C(=O)O` (centres unmarked) [compound 100], the IC50 in assay [1] worked out at 0.028 µM; in assay [2], 0.244 µM. Besides, the inhibition at 1 µM in assay [1] and in assay [2] was 100% in each case. Besides, the CC50 in assay [3] (setting [4]) was found to be 0.95 µM.
As for `O=C(Cc1ccc(Oc2ccc3cc(O[C@H]4CC[C@@H](NC(=O)c5cc(Cl)cnc5Cl)CC4)ccc3c2)cc1)Nc1ccccc1C(=O)O` [compound 351], the IC50 in assay [1] is under 0.01 µM; in assay [2] it was 0.662 µM. For the same compound, the figures for the inhibition at 1 µM in assay [1] and in assay [2] were 100% and 71.7%, respectively. Moreover, in assay [3] (setting [4]), the CC50 was determined as 0.31 µM.

The record behind these values is patent US6649656B1, “Anthranilic acid derivatives” (Teijin Limited, priority 1998, dated 2003).
